Legend:
[1] = In vitro stability (enantiomerization, D/H exchange) in C57BL/6 mouse plasma at 37° C.; format: in vitro ADME; settings: up to 32 h
Protocol: (§1) The plasma samples were incubated at 37° C. in duplicate (anticoagulant: K3EDTA). […] Samples were placed at −80° C. until the study was complete. […] The vortexed samples were centrifuged and 50 μL of supernatant was dispensed in a 96-well plate.
(§2) The deuterium in both enantiomers, d-S and d-R, can be lost by D/H exchange to give both protonated enantiomers, h-S and h-R with rate constants kDRR, kDRS, kDSR, and kDSS. At the same time, the protonated enantiomers h-S and h-R can exchange with enantiomerization rate constants kRS and kSR. All four compounds can also degrade with potentially different degradation rate constants kdSd, kdRd, khSd, and khRd.
(§3) Human and mouse plasma data were analyzed independently. […] Data in each species was analyzed using a stepwise approach.
(§4) The step between calculated time points was minimized in order to minimize the local error (proportional to the square of the step size) and the global error (proportional to the step size).

[2] = In vitro stability (enantiomerization, D/H exchange) in human plasma at 37° C.; format: in vitro ADME; settings: up to 32 h
Protocol: as §1, §2, §3, §4

[3] = target: T1, human recombinant monoamine oxidase B (Homo sapiens, UniProt P27338); assay: Monoamine oxidase B (MAO-B) inhibition, luminescence assay; format: biochemical
T1 sequence (P27338 1-520): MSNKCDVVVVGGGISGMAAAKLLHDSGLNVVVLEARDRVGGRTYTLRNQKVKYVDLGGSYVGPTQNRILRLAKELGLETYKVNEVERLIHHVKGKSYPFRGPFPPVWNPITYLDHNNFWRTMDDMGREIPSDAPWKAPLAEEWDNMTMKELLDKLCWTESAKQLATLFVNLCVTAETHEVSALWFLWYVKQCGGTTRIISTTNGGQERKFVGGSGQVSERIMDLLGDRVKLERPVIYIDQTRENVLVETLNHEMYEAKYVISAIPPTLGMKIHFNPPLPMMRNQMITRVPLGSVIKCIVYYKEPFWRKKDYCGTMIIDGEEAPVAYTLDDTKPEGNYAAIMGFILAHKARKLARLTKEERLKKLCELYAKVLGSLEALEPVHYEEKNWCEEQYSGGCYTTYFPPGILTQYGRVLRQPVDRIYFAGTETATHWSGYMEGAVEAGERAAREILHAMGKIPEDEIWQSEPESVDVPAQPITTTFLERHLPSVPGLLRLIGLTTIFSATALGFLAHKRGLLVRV
Protocol: The mixtures were incubated at 22° C. for 5 min. Substrate (D-luciferin derivative) was added, and then the mixture was incubated at 37° C. for 60 min. The reaction was stopped by addition of the detection reagent containing luciferase. Luminescence was read after standing for 60 min at room temperature.
Results were expressed as a percentage of the luminescence of the control (enzyme+substrate). IC50 values were obtained by fitting experimental data (mean % luminescence as function of concentration) to the Hill equation with variable slope using non-linear regression analysis.

[4] = In vitro plasma stability, half-life of deuterated vs. protonated enantiomers (plasma species not given); format: in vitro ADME; settings: 37° C., t1/2=ln(2)/k from fitted rate constants
Protocol: as §1, §2, §3, §4

C2C12 cells = settings: 30 μM for 15, 30, or 90 min; 10 mM sodium pyruvate
Protocol: On the day before the assay, C2C12 cells were subcultured in XF96 microplates at a density of 20,000 cells per well. After overnight incubation (37° C., 5% CO2), the cells were washed 3 times with assay medium (Seahorse medium (Seahorse Bioscience, North Billerica, Mass.) containing 10 mM sodium pyruvate, pH 7.4). […] Incubation times of 15, 30, or 90 min were used prior to measurement of maximal respiration, i.e., until addition of FCCP. […] Maximal respiration as oxygen consumption rates (pmoles O2/min) was measured for each compound, at each concentration, and each time point in three separate experiments.

Row | SMILES | degradation (sum of peak areas vs. incubation time) [1] | degradation (sum of peak areas vs. incubation time) [2] | difference in inhibition efficacy between d-R-pio and d-S-pio [3] | half-life of deuterated enantiomer vs. corresponding protonated enantiomer [4] | maximal respiration as oxygen consumption rate (OCR) vs. vehicle-treated cells (C2C12 cells)
1 | CCc1ccc(CCOc2ccc(C[C@@H]3SC(=O)NC3=O)cc2)nc1 [h-S-pio, (S)-5-({p-[2-(5-ethyl-2-pyridyl)ethoxy]phenyl}methyl)-1,3-thiazolidine-2,4-dione, reference compound] | negligible | negligible | – | – | –
2 | [2H][C@]1(Cc2ccc(OCCc3ccc(CC)cn3)cc2)SC(=O)NC1=O [d-R-pio, (R)-5-({p-[2-(5-Ethyl-2-pyridyl)ethoxy]phenyl}methyl)-(5-^2H)-1,3-thiazolidine-2,4-dione] | negligible | negligible | greater than 5 fold | approximately two-fold | inhibited maximal respiration
3 | CCc1ccc(CCOc2ccc(C[C@H]3SC(=O)NC3=O)cc2)nc1 [h-R-pio, (R)-5-({p-[2-(5-ethyl-2-pyridyl)ethoxy]phenyl}methyl)-1,3-thiazolidine-2,4-dione, reference compound] | negligible | negligible | – | – | –
4 | CCc1ccc(CCOc2ccc(CC3SC(=O)NC3=O)cc2)nc1 (racemic) [h-rac-pio, rac-5-({p-[2-(5-Ethyl-2-pyridyl)ethoxy]phenyl}methyl)-1,3-thiazolidine-2,4-dione, reference compound] | – | – | – | – | inhibited maximal respiration
5 | [2H][C@@]1(Cc2ccc(OCCc3ccc(CC)cn3)cc2)SC(=O)NC1=O [d-S-pio, (S)-5-({p-[2-(5-Ethyl-2-pyridyl)ethoxy]phenyl}methyl)-(5-^2H)-1,3-thiazolidine-2,4-dione] | negligible | negligible | – | approximately the same as the half-life for h-S-pio | no significant measurable effect

— patent US20180125834A1, “METHODS OF TREATING BACTERIAL INFECTIONS AND FUNGAL INFECTIONS USING ENANTIOPURE DEUTERIUM-ENRICHED PIOGLITAZONE” (DeuteRx, LLC, priority 2015, published 2018)
